Biological target: T1, Recombinant human p70S6K kinase (Homo sapiens, UniProt P23443)
T1 construct: purchased ThermoFisher Scientific PV3815
Assay: S6K Enzymatic Inhibition Assay (HotSpot kinase assay; called S6K binding assay in Table 2)
Assay type: biochemical
Settings: IC50 class
Description: Enzymatic activity was determined using a commercial HotSpot kinase assay. Recombinant human p70S6K kinase was purchased from ThermoFisher Scientific (cat #PV3815). The substrate S6K/RSK2 peptide 2 was synthesized at Genscript [Piscataway, NJ]. In brief, the substrate was prepared in the reaction buffer [20 mM Hepes (pH 7.5), 10 mM MgCl2, 1 mM EGTA, 0.02% Brij35, 0.02 mg/mL BSA, 0.1 mM Na3VO4, 2 mM DTT, 1% DMSO]. Testing compounds were dissolved in 100% DMSO and a serial dilution was conducted in DMSO. The kinase at final concentration of 3 nM was added into the substrate solution and gently mixed. Test compounds were delivered at the appropriate concentrations into the kinase reaction mixture by Echo550, and incubated for 20 minutes at room temperature. ^33P-ATP (Specific activity 10 μCi/μL) was added into the reaction mixture to initiate the reaction. Assay plates were incubated for 2 hours at room temperature. The radioactivity was detected by filter-binding method. Kinase activity data is expressed as the percent remaining kinase activity in test samples compared to vehicle (DMSO) reactions. IC50 curves were plotted and IC50 values were calculated using the GraphPad Prism 4 program based on a sigmoidal dose-response equation.

T1 sequence (P23443 whole entry): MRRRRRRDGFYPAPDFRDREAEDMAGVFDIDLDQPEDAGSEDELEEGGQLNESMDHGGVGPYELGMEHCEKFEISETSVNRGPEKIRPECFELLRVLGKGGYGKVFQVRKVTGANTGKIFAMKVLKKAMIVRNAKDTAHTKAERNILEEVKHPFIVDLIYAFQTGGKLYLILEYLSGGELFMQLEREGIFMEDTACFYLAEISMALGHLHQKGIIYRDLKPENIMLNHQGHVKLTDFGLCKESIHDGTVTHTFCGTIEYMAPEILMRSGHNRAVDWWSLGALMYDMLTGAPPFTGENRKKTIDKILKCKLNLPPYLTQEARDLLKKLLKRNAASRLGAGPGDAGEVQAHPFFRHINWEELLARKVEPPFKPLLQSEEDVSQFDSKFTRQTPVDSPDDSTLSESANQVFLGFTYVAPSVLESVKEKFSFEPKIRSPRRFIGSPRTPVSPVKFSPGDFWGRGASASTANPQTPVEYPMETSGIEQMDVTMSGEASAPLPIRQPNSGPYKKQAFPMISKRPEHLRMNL

Row | Compound | IC50 [nM]
1 | Nc1ncnc(-c2cnn(Cc3ccc(C(F)(F)F)cc3)c2)c1-c1ccc(F)c(F)c1 [Example 31, 5-(3,4-Difluorophenyl)-6-(1-{[p-(trifluoromethyl)phenyl]methyl}-1H-pyrazol-4-yl)-4-pyrimidinylamine] | < 50
2 | Nc1ncnc(-c2cnn(Cc3ccccc3C(F)(F)F)c2)c1-c1ccc(Cl)cc1 [Example 17, 5-(p-Chlorophenyl)-6-(1-{[o-(trifluoromethyl)phenyl]methyl}-1H-pyrazol-4-yl)-4-pyrimidinylamine] | 50 to 500
3 | Nc1cc(-c2cnn(Cc3ccc(C(F)(F)F)cc3)c2)ccn1 [Example 36, 4-(1-{[p-(Trifluoromethyl)phenyl]methyl}-1H-pyrazol-4-yl)-2-pyridylamine] | 500 to 10000
4 | Nc1ncnc(-c2cnn(Cc3ccc(C(F)(F)F)cc3)c2)c1-c1ccc(F)cc1 [Example 25, 5-(p-Fluorophenyl)-6-(1-{[p-(trifluoromethyl)phenyl]methyl}-1H-pyrazol-4-yl)-4-pyrimidinylamine] | < 50
5 | Nc1ncnc(-c2cnn(Cc3ccccc3F)c2)c1-c1ccc(Cl)cc1 [Example 21, 5-(p-Chlorophenyl)-6-{1-[(o-fluorophenyl)methyl]-1H-pyrazol-4-yl}-4-pyrimidinylamine] | < 50
6 | Nc1ncnc(-c2cnn(Cc3ccc(C(F)(F)F)cc3)c2)c1-c1ccc(Cl)c(F)c1 [Example 27, 5-(4-Chloro-3-fluorophenyl)-6-(1-{[p-(trifluoromethyl)phenyl]methyl}-1H-pyrazol-4-yl)-4-pyrimidinylamine] | < 50
7 | Nc1ncnc(-c2cnn(Cc3ccc(C(F)(F)F)cc3)c2)c1-c1ccc(OC(F)(F)F)cc1 [Example 34, 5-(p-Trifluoromethoxyphenyl)-6-(1-{[p-(trifluoromethyl)phenyl]methyl}-1H-pyrazol-4-yl)-4-pyrimidinylamine] | 500 to 10000
8 | Cn1cc(-c2ncnc(N)c2-c2ccc(Cl)cc2)cn1 [Example 2, 5-(p-Chlorophenyl)-6-(1-methyl-1H-pyrazol-4-yl)-4-pyrimidinylamine] | 50 to 500
9 | CS(=O)(=O)c1ccc(-c2c(N)ncnc2-c2cnn(Cc3ccc(C(F)(F)F)cc3)c2)cc1 [Example 26, 5-[p-(Methylsulfonyl)phenyl]-6-(1-{[p-(trifluoromethyl)phenyl]methyl}-1H-pyrazol-4-yl)-4-pyrimidinylamine] | 500 to 10000
10 | Nc1ncnc(-c2cnn(-c3ccccc3)c2)c1-c1ccc(Cl)cc1 [Example 10, 5-(p-Chlorophenyl)-6-(1-phenyl-1H-pyrazol-4-yl)-4-pyrimidinylamine] | 50 to 500
11 | CC(c1cccc(C(F)(F)F)c1)n1cc(-c2ncnc(N)c2-c2ccc(Cl)cc2)cn1 (racemic) [Example 3, (±)-5-(p-Chlorophenyl)-6-(1-{1-[m-(trifluoromethyl)phenyl]ethyl}-1H-pyrazol-4-yl)-4-pyrimidinylamine] | 50 to 500
12 | Nc1ncnc(-c2cnn(Cc3ccc(C(F)(F)F)cc3)c2)c1-c1ccc(Cl)cc1 [Example 4, 5-(p-Chlorophenyl)-6-(1-{[p-(trifluoromethyl)phenyl]methyl}-1H-pyrazol-4-yl)-4-pyrimidinylamine] | < 50
13 | Nc1ncnc(-c2cnn(-c3cccc(C(F)(F)F)c3)c2)c1-c1ccc(Cl)cc1 [Example 13, 5-(p-Chlorophenyl)-6-{1-[m-(trifluoromethyl)phenyl]-1H-pyrazol-4-yl}-4-pyrimidinylamine] | 500 to 10000
14 | Nc1ncnc(-c2cnn(Cc3ccccc3)c2)c1-c1ccc(Cl)cc1 [Example 1, 6-(1-Benzyl-1H-pyrazol-4-yl)-5-(p-chlorophenyl)-4-pyrimidinylamine] | < 50
15 | Nc1ncnc(-c2cnn(Cc3ccc(C(F)(F)F)cc3)c2)c1-c1ccc(Cl)c(Cl)c1 [Example 28, 5-(3,4-Dichlorophenyl)-6-(1-{[p-(trifluoromethyl)phenyl]methyl}-1H-pyrazol-4-yl)-4-pyrimidinylamine] | 500 to 10000
16 | Nc1ncnc(-c2cnn(Cc3ccc(Cl)cc3)c2)c1-c1ccc(Cl)cc1 [Example 16, 5-(p-Chlorophenyl)-6-{1-[(p-chlorophenyl)methyl]-1H-pyrazol-4-yl}-4-pyrimidinylamine] | < 50
17 | COc1cc(-c2c(N)ncnc2-c2cnn(Cc3ccc(C(F)(F)F)cc3)c2)ccc1Cl [Example 29, 5-(4-Chloro-3-methoxyphenyl)-6-(1-{[p-(trifluoromethyl)phenyl]methyl}-1H-pyrazol-4-yl)-4-pyrimidinylamine] | 500 to 10000
18 | NC(=O)C(c1ccccc1)n1cc(-c2ncnc(N)c2-c2ccc(Cl)cc2)cn1 (racemic) [Example 8, (±)-{4-[6-Amino-5-(p-chlorophenyl)-4-pyrimidinyl]-1H-pyrazol-1-yl}phenylacetamide] | < 50
19 | COc1ccc(-c2c(N)ncnc2-c2cnn(Cc3ccc(C(F)(F)F)cc3)c2)cc1Cl [Example 30, 5-(3-Chloro-4-methoxyphenyl)-6-(1-{[p-(trifluoromethyl)phenyl]methyl}-1H-pyrazol-4-yl)-4-pyrimidinylamine] | 500 to 10000
20 | Cc1ccccc1-n1cc(-c2ncnc(N)c2-c2ccc(Cl)cc2)cn1 [Example 11, 5-(p-Chlorophenyl)-6-[1-(o-tolyl)-1H-pyrazol-4-yl]-4-pyrimidinylamine] | 50 to 500
21 | COc1ccc(-c2c(-c3cnn(Cc4ccc(C(F)(F)F)cc4)c3)ccnc2N)cc1 [Example 38, 3-(p-Methoxyphenyl)-4-(1-{[p-(trifluoromethyl)phenyl]methyl}-1H-pyrazol-4-yl)-2-pyridylamine] | < 50
22 | Nc1ncnc(-n2cc(C(=O)c3ccccc3)cn2)c1-c1ccc(Cl)cc1 [Example 22, {1-[6-Amino-5-(p-chlorophenyl)-4-pyrimidinyl]-1H-pyrazol-4-yl}phenylmethanone] | 500 to 10000
23 | Nc1ncnc(-c2cnn(Cc3ccc(C(F)(F)F)cc3)c2)c1-c1ccc2c(c1)OC(F)(F)O2 [Example 35, 5-(2,2-Difluoro-2H-1,3-benzodioxol-5-yl)-6-(1-{[p-(trifluoromethyl)phenyl]methyl}-1H-pyrazol-4-yl)-4-pyrimidinylamine] | 500 to 10000
24 | COc1cc(-c2c(N)ncnc2-c2cnn(Cc3ccc(C(F)(F)F)cc3)c2)ccc1F [Example 33, 5-(4-Fluoro-3-methoxyphenyl)-6-(1-{[p-(trifluoromethyl)phenyl]methyl}-1H-pyrazol-4-yl)-4-pyrimidinylamine] | 500 to 10000
25 | Nc1ncnc(-c2cnn(Cc3cccc(F)c3)c2)c1-c1ccc(Cl)cc1 [Example 15, 5-(p-Chlorophenyl)-6-{1-[(m-fluorophenyl)methyl]-1H-pyrazol-4-yl}-4-pyrimidinylamine] | < 50
26 | Nc1ncnc(-c2cnn(C3CCCCO3)c2)c1-c1ccc(Cl)cc1 (stereo not shown) [Example 14, 5-(p-Chlorophenyl)-6-[1-(tetrahydro-2H-pyran-2-yl)-1H-pyrazol-4-yl]-4-pyrimidinylamine] | 500 to 10000
27 | COc1ccc(-c2c(N)ncnc2-c2cnn(Cc3ccc(C(F)(F)F)cc3)c2)cc1 [Example 24, 5-(p-Methoxyphenyl)-6-(1-{[p-(trifluoromethyl)phenyl]methyl}-1H-pyrazol-4-yl)-4-pyrimidinylamine] | < 50
28 | COc1ccc(-c2c(N)ncnc2-c2cnn(Cc3ccc(C(F)(F)F)cc3)c2)cc1F [Example 32, 5-(3-Fluoro-4-methoxyphenyl)-6-(1-{[p-(trifluoromethyl)phenyl]methyl}-1H-pyrazol-4-yl)-4-pyrimidinylamine] | < 50

From patent US12234224B2, “Pyrimidine and pyridine amine compounds and usage thereof in disease treatment” (Epigen Biosciences, Inc., priority 2021, dated 2025)
